Laboratory results as given in patent US8287919B2, “Low environmental impact pesticide made from “gras” ingredients for use against coqui frogs and other species” (priority 2009, dated 2012).
Where two headings read alike, the source gives them in different places.

Tests used:
frogs = experiment: Frog killing time with different concentrations; assay type: in vivo, Eleutherodactylus coqui
Description: Additionally, this formulation killed 10 out of 10 frogs within about 15 minutes.

Coqui = conditions: in vivo; cited from earlier work
human skin = experiment: Contact with human skin; assay type: in vivo; conditions: solution with pH of less than 0.5
Description: As discussed above, AGIIS has relatively less dehydrating properties (such as charring sucrose) as compared to the saturated solution of CaSO4 in the same concentration of H2SO4. […] AGIIS has low volatility at room temperature and pressure.
In view of the need to find new phytogenic friendly alternatives for controlling the spread of Coqui frogs, a commercially available food sanitation product (i.e. Acidic Calcium Sulfate (“ACS”) was evaluated for inclusion in the current inventory of chemicals that can be applied as sprays. ACS and functional equivalents thereof are made from ingredients that are generally regarded as safe (“GRAS”), and is approved for use in food by the FDA and USDA. Although not wanting to be bound by theory, the efficacy of this product stems from its very unique characteristic of being able to donate a very high activity of hydrogen ions (low pH), while at the same time, having very low oxidative effects on plants and human skin. For example, a five (5) normal concentration of ACS having a pH of approximately zero may be held in the human hand without harm to the person holding the acid. In contrast, when very small amounts are applied to the skin of Coqui frogs it is quickly absorbed and respiration is immediately impaired with lethal results. […]

common plants = system: common plants; parameters: key: severe: most if not all the leaves turned black; flowers and leaves became bleached and recovery was slow; moderate: young leaves and new shoots burned; the outer edges of leaves burned and dropped; dark brown spots appeared where acid may have concentrated; and recovery of the plants were slow; slight: the leaves were spotted white, or lesions formed on the trunk; conditions: citric acid 25%, three days after treatment, cited from earlier work
mature Palm trees = experiment: Phytotoxicity to sprayed palm trees; assay type: in vivo; conditions: spray on mature palm trees
Description: Large-scale examples of the product's use and phytotoxicity at the same concentration (about 11.5%) as used in previous examples were also conducted by Palms of Hawaii. A five-gallon back pack sprayer equipped with a mist spray nozzle was used to spray mature Palm trees being prepared for distribution with about a gallon of spray each.
Upon spraying palm trees having frogs, frogs leap off the root balls and crowns and from the junctions between the fronds and tree trunks. The nurseryman rated the complete removal, if not extermination of all frogs from the trees as excellent.

## CCC(=O)O [propionic acid]
frogs; 5% solution
  killing speed compared with standard citric acid: killed equally fast
frogs; 10% solution
  killing speed compared with standard citric acid: killed frogs faster than standard citric acid
frogs; concentrations from about 5% to about 10%
  lethality to frogs: lethal to the frogs in the test group

## [Ca+2].[OH-].[OH-] [hydrated lime]
Coqui
  effectiveness in eradicating frogs: not entirely effective

## O=S(=O)(O)O [sulfuric acid]
Human skin
  irritation of hand put into solution: an irritation would occur within a relatively short span of time

## O=C(O)CC(O)(CC(=O)O)C(=O)O [citric acid]
Common plants; guava plant, bromeliad, dendrobium orchid and leatherleaf fern
  phytotoxicity rating: moderate
Common plants; passion fruit and payaya
  phytotoxicity rating: slight
Common plants; streptocarpus, calathea and eggplants
  phytotoxicity rating: severe
Mature Palm trees
  phytotoxicity to palm trees: typically causes browning
